# Measured values as given in patent publication US20080287396A1, “Phosphonated Fluoroquinolones, Antibacterial Analogs Thereof, and Methods for the Prevention and Treatment of Bone and Joint Infections” (TARGANTA THERAPEUTICA INC., priority 2005, published 2008).
# Assays:
# [1] = test system: S. aureus strains ATCC13709 and RN4220; test: microbe, parasite or virus in culture; assay type: cell-based; settings: Staphylococcus aureus, ATCC13709; CAMHB, 37° C., 18 h; data not shown; read-out: minimum inhibitory concentration (MIC)
# Description: (§1) Susceptibility of S. aureus strains ATCC13709 and RN4220 to the commercial antibiotics and synthesized compounds was determined by following the guidelines set by the Clinical and Laboratory Standards Institute (formerly the National Committee for Clinical Laboratory Standards) (M26-A). Compounds were diluted two-fold serially in DMSO and transferred to cation-adjusted Mueller Hinton broth (CAMHB; Becton Dickinson). 50 μL of compounds diluted in CAMHB was mixed with 100 μL of bacteria diluted in CAMHB in 96-well microtiter plates. The final number of micro-organisms in the assay was 5×10^5 c.f.u. per mL and the final concentration of DMSO in the assay was 1.25%. Assays were set up in duplicate and incubated at 37° C. for 18 h. The concentration of compound that inhibited visible growth was reported as the minimum inhibitory concentration (MIC).
# [2] = test system: S. aureus strains ATCC13709 and RN4220; test: Susceptibility testing (MIC) in the presence of serum; assay type: cell-based; settings: Staphylococcus aureus, ATCC13709; in serum (kind not stated); read-out: MIC in serum
# Description: as §1
# Susceptibility testing experiments were also carried out in the presence of serum. These experiments were carried out similar to the susceptibility testing with the following modifications. 75 μL of compounds diluted in CAMHB was mixed with 75 μL of bacteria diluted in 100% serum from any given source (commercial pooled mouse serum (MS) and human serum (HS), Equitech-Bio Inc.) or diluted in 8% purified human serum albumin (HSA) (Calbiochem). […]
# [3] = Bone powder binding, fluorometric detection; settings: 1 mg/ml compound, bone meal powder 10 mg/ml in PBS, 37° C., 1 h
# Outline: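 LC/MS method: 100 μM compound in 0.1 M Tris-HCl pH 7, 0.15 M NaCl shaken 10 min with or without ground rat tibia, centrifuged, unbound compound measured in supernatant. Fluorometric method: 1 mg/ml compound in 10 mg/ml bone meal/PBS, 1 h at 37 °C, pellet washed. Supernatant fluoroquinolone read at 280/465 nm; bound amount taken as input minus recovered.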
# [4] = Bone powder binding, LC/MS detection; settings: 100 μM compound, Tris-HCl pH 7, 0.15M NaCl, ground rat tibia bone, 10 min
# Description: The ability of the example molecules to bind to bone powder was established in two parallel fashions, using either LC/MS or fluorometric detection. For LC/MS detection, a stock solution (5 mM) of the compound to be tested was added to 0.1M Tris-HCl buffer pH 7, 0.15M NaCl to reach a final concentration of 100 μM. Triplicate samples (1 mL) of the compound solutions were intensively shaken for 10 min with or without 25 mg of fresh or 20 mg of vacuum dried ground rat tibia bone. The samples were then centrifuged for 15 min at 10 000 g. The presence of unbound compound was measured by injection of 30 μL of each of the supernatants into an Agilent 1100™ LC/UV system. For fluorometric detection, an individual compound was dissolved in PBS or water (compound 52) and resuspended at a concentration of 1 mg/ml in a slurry of bone meal powder (Now Foods, Bloomingdale, Ill., USA) in PBS at 10 mg/ml. The suspension of drug/prodrug in bone meal powder was incubated at 37° C. for 1 h to allow for binding, and centrifuged at 13 000 rpm for 2 min, before recovering the supernatant. The bone meal powder pellet was then washed three times with 1 ml of PBS. All supernatants were saved and assessed for fluoroquinolone content by fluorescence measurements at excitation/emission wavelengths of 280/465 nm. The amount of fluoroquinolone was determined from standard curves generated for each experiment. Amount of drug/prodrug bound to bone powder was deduced from the difference between the input amount (typically 1 mg) and the amount recovered in the supernatants after binding. In all binding experiments, >99% of input drug was recovered in the supernatant for the parent drugs.
# [5] = Regeneration of drug from bone powder-bound prodrug; assay type: in vitro ADME; settings: 7 days, medium not stated
smiles,measurement,setting,value
"COc1c(N2C[C@@H]3CCCN[C@@H]3C2)c(F)cc2c(=O)c(C(=O)OCCCCC(P(=O)(O)O)P(=O)(O)O)cn(C3CC3)c12 [Compound 25, 5,5-bisphosphonopentyl 7-((4aS,7aS)-octahydropyrrolo[3,4-b]pyridin-6-yl)-1-cyclopropyl-6-fluoro-1,4-dihydro-8-methoxy-4-oxoquinoline-3-carboxylate]",MIC,[1],32 µg/mL
same,MIC,[2],32 µg/mL
same,Binding to bone (%) Fluorescence,[3],92.7%
same,Binding to bone (%) LC/MS,[4],87.6 ± 11.5%
same,"drug released from the bone matter after 7 days of incubation, in words",[5],signs of drug release
